Test results from ChEMBL document CHEMBL1201861, “Genomics of Drug Sensitity in Cancer screening data, Wellcome Trust Sanger Institute”.

Assays:
Test in all cases: cells
COLO-829 = assay type: functional, cell-based, Homo sapiens; settings: Homo sapiens, COLO-829
Description: SANGER: Inhibition of human COLO-829 cell growth in a cell viability assay.

Calu-3 = assay type: functional, cell-based, Homo sapiens; settings: Homo sapiens, Calu-3;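 further: growth inhibition of human Calu-3 cells, determined with a cell viability assay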
Description: SANGER: Inhibition of human Calu-3 cell growth in a cell viability assay.

Calu-6 = assay type: functional, cell-based, Homo sapiens; settings: Homo sapiens, Calu-6;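 further: growth of human Calu-6 cells, read out by a cell viability assay, IC50 marking inhibition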
Description: SANGER: Inhibition of human Calu-6 cell growth in a cell viability assay.

D283 Med = assay type: functional, cell-based, Homo sapiens; settings: Homo sapiens, D283 Med
Description: SANGER: Inhibition of human D-283MED cell growth in a cell viability assay.

EGI-1 = assay type: functional, cell-based, Homo sapiens; settings: Homo sapiens, EGI-1;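 further: cell viability readout used to gauge growth inhibition of EGI-1 cells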
Description: SANGER: Inhibition of human EGI-1 cell growth in a cell viability assay.

EOL1 = assay type: functional, cell-based; settings: Homo sapiens;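 further: growth inhibition of EoL-1 cells, read out by a cell viability assay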
Description: SANGER: Inhibition of human EoL-1-cell cell growth in a cell viability assay.

G-402 = assay type: functional, cell-based, Homo sapiens; settings: Homo sapiens, G-402
Description: SANGER: Inhibition of human G-402 cell growth in a cell viability assay.

GOTO = assay type: functional, cell-based, Homo sapiens; settings: Homo sapiens, GOTO;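 further: growth inhibition of GOTO cells, read out by a cell viability assay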
Description: SANGER: Inhibition of human GOTO cell growth in a cell viability assay.

HCC2218 = assay type: functional, cell-based; settings: Homo sapiens;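 further: cell viability assay read-out, with IC50 given as the concentration that inhibits growth of the cell line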
Description: SANGER: Inhibition of human HCC2218 cell growth in a cell viability assay.

HH = assay type: functional, cell-based; settings: Homo sapiens
Description: SANGER: Inhibition of human HH cell growth in a cell viability assay.

HT-29 = assay type: functional, cell-based, Homo sapiens; settings: Homo sapiens, HT-29;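 further: growth inhibition of human HT-29 cells, read out by a cell viability assay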
Description: SANGER: Inhibition of human HT-29 cell growth in a cell viability assay.

HuP-T3 = assay type: functional, cell-based, Homo sapiens; settings: Homo sapiens, HuP-T3;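 further: HuP-T3 cell growth inhibition, read out with a cell viability assay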
Description: SANGER: Inhibition of human HuP-T3 cell growth in a cell viability assay.

KLE = assay type: functional, cell-based, Homo sapiens; settings: Homo sapiens, KLE;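 further: growth inhibition of human KLE cells, read out with a cell viability assay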
Description: SANGER: Inhibition of human KLE cell growth in a cell viability assay.

KP-N-YS = assay type: functional, cell-based; settings: Homo sapiens;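 further: cell viability assay measuring inhibition of cell line growth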
Description: SANGER: Inhibition of human KP-N-YS cell growth in a cell viability assay.

LAMA-84 = assay type: functional, cell-based; settings: Homo sapiens;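 further: growth inhibition of LAMA-84 cells, read out with a cell viability assay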
Description: SANGER: Inhibition of human LAMA-84 cell growth in a cell viability assay.

LOX IMVI = assay type: functional, cell-based; settings: Homo sapiens
Description: SANGER: Inhibition of human LOXIMVI cell growth in a cell viability assay.

LS-1034 = assay type: functional, cell-based, Homo sapiens; settings: Homo sapiens, LS-1034
Description: SANGER: Inhibition of human LS-1034 cell growth in a cell viability assay.

MFH-ino = assay type: functional, cell-based; settings: Homo sapiens;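 further: growth inhibition of human MFH-ino cells, read out by a cell viability assay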
Description: SANGER: Inhibition of human MFH-ino cell growth in a cell viability assay.

MHH-NB-11 = assay type: functional, cell-based, Homo sapiens; settings: Homo sapiens, MHH-NB-11;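 further: growth inhibition of human MHH-NB-11 cells, read out by a cell viability assay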
Description: SANGER: Inhibition of human MHH-NB-11 cell growth in a cell viability assay.

MKN-1 = assay type: functional, cell-based, Homo sapiens; settings: Homo sapiens, MKN-1;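 further: growth inhibition of human MKN1 cells, read out by a cell viability measurement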
Description: SANGER: Inhibition of human MKN1 cell growth in a cell viability assay.

MPP-89 = assay type: functional, cell-based, Homo sapiens; settings: Homo sapiens, MPP-89;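 further: growth inhibition of human MPP-89 cells, read out with a cell viability assay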
Description: SANGER: Inhibition of human MPP-89 cell growth in a cell viability assay.

MZ2-MEL = assay type: functional, cell-based, Homo sapiens; settings: Homo sapiens, MZ2-MEL;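 further: growth inhibition of MZ2-MEL cells read out with a cell viability assay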
Description: SANGER: Inhibition of human MZ2-MEL cell growth in a cell viability assay.

NCI-H1693 = assay type: functional, cell-based, Homo sapiens; settings: Homo sapiens, NCI-H1693;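 further: growth inhibition of the human cell line, read out with a cell viability assay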
Description: SANGER: Inhibition of human NCI-H1693 cell growth in a cell viability assay.

NCI-H1993 = assay type: functional, cell-based, Homo sapiens; settings: Homo sapiens, NCI-H1993;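 further: growth inhibition of the cancer cell line, assessed with a cell viability assay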
Description: SANGER: Inhibition of human NCI-H1993 cell growth in a cell viability assay.

NCI-H2405 = assay type: functional, cell-based, Homo sapiens; settings: Homo sapiens, NCI-H2405;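 further: growth inhibition of the human cell line, read out with a cell viability assay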
Description: SANGER: Inhibition of human NCI-H2405 cell growth in a cell viability assay.

NCI-H292 = assay type: functional, cell-based, Homo sapiens; settings: Homo sapiens, NCI-H292;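 further: growth inhibition of NCI-H292 cells, read out with a cell viability assay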
Description: SANGER: Inhibition of human NCI-H292 cell growth in a cell viability assay.

NCI-H358 = assay type: functional, cell-based, Homo sapiens; settings: Homo sapiens, NCI-H358;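 further: growth inhibition of NCI-H358 human cells, read out with a cell viability assay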
Description: SANGER: Inhibition of human NCI-H358 cell growth in a cell viability assay.

SH-4 = assay type: functional, cell-based, Homo sapiens; settings: Homo sapiens, SH-4;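 further: growth inhibition of SH-4 cells, read out with a cell viability assay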
Description: SANGER: Inhibition of human SH-4 cell growth in a cell viability assay.

SK-MEL-2 = assay type: functional, cell-based, Homo sapiens; settings: Homo sapiens, SK-MEL-2;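 further: growth inhibition of human SK-MEL-2 cells measured with a cell viability assay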
Description: SANGER: Inhibition of human SK-MEL-2 cell growth in a cell viability assay.

SK-MES-1 = assay type: functional, cell-based, Homo sapiens; settings: Homo sapiens, SK-MES-1;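 further: growth inhibition of human SK-MES-1 cells, read out with a cell viability assay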
Description: SANGER: Inhibition of human SK-MES-1 cell growth in a cell viability assay.

SW1783 = assay type: functional, cell-based; settings: Homo sapiens;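 further: cell growth inhibition measured with a viability assay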
Description: SANGER: Inhibition of human SW1783 cell growth in a cell viability assay.

SW 962 = assay type: functional, cell-based, Homo sapiens; settings: Homo sapiens, SW 962;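 further: growth inhibition of human SW962 cells, read out by a cell viability assay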
Description: SANGER: Inhibition of human SW962 cell growth in a cell viability assay.

T-24 = assay type: functional, cell-based, Homo sapiens; settings: Homo sapiens, T-24;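 further: growth inhibition of T-24 cells, read out with a cell viability assay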
Description: SANGER: Inhibition of human T-24 cell growth in a cell viability assay.

T98G = assay type: functional, cell-based, Homo sapiens; settings: Homo sapiens, T98G;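 further: growth inhibition of T98G cells, read out by a cell viability assay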
Description: SANGER: Inhibition of human T98G cell growth in a cell viability assay.

TE-1 = assay type: functional, cell-based, Homo sapiens; settings: Homo sapiens, TE-1
Description: SANGER: Inhibition of human TE-1 cell growth in a cell viability assay.

697 = assay type: functional, cell-based; settings: Homo sapiens
Description: SANGER: Inhibition of human 697 cell growth in a cell viability assay.

786-0 = assay type: functional, cell-based, Homo sapiens; settings: Homo sapiens
Description: SANGER: Inhibition of human 786-0 cell growth in a cell viability assay.

A-375 = assay type: functional, cell-based, Homo sapiens; settings: Homo sapiens, A-375;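 further: growth inhibition of A375 cells, read out with a cell viability assay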
Description: SANGER: Inhibition of human A375 cell growth in a cell viability assay.

A704 = assay type: functional, cell-based, Homo sapiens; settings: Homo sapiens, A704;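 further: growth inhibition of human A704 cells, read out with a cell viability assay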
Description: SANGER: Inhibition of human A704 cell growth in a cell viability assay.

AGS = assay type: functional, cell-based, Homo sapiens; settings: Homo sapiens, AGS;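 further: growth inhibition of AGS cells, determined with a cell viability assay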
Description: SANGER: Inhibition of human AGS cell growth in a cell viability assay.

ASPC1 = assay type: functional, cell-based, Homo sapiens; settings: Homo sapiens, ASPC1;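 further: growth inhibition of AsPC-1 cells, read out with a cell viability assay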
Description: SANGER: Inhibition of human AsPC-1 cell growth in a cell viability assay.

BB65-RCC = assay type: functional, cell-based, Homo sapiens; settings: Homo sapiens, BB65-RCC;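 further: growth inhibition of the cell line, measured with a cell viability assay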
Description: SANGER: Inhibition of human BB65-RCC cell growth in a cell viability assay.

BEN = assay type: functional, cell-based, Homo sapiens; settings: Homo sapiens, BEN;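 further: growth inhibition of the BEN cell line, read out with a cell viability assay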
Description: SANGER: Inhibition of human BEN cell growth in a cell viability assay.

BFTC-905 = assay type: functional, cell-based, Homo sapiens; settings: Homo sapiens, BFTC-905
Description: SANGER: Inhibition of human BFTC-905 cell growth in a cell viability assay.

CAL-12T = assay type: functional, cell-based, Homo sapiens; settings: Homo sapiens, CAL-12T;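 further: growth inhibition of human CAL-12T cells, read out with a cell viability assay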
Description: SANGER: Inhibition of human CAL-12T cell growth in a cell viability assay.

CAL-27 = assay type: functional, cell-based, Homo sapiens; settings: Homo sapiens, CAL-27;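 further: Viability-based readout, IC50 reflecting inhibition of CAL-27 cell growth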
Description: SANGER: Inhibition of human CAL-27 cell growth in a cell viability assay.

TE-11 = assay type: functional, cell-based, Homo sapiens; settings: Homo sapiens, TE-11;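 further: growth inhibition of human TE-11 cells, read out by a cell viability assay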
Description: SANGER: Inhibition of human TE-11 cell growth in a cell viability assay.

TE-8 = assay type: functional, cell-based, Homo sapiens; settings: Homo sapiens, TE-8;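 further: growth inhibition of TE-8 cells, measured with a cell viability readout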
Description: SANGER: Inhibition of human TE-8 cell growth in a cell viability assay.

UMUC3 = assay type: functional, cell-based, Homo sapiens; settings: Homo sapiens, UMUC3;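 further: growth inhibition of human UM-UC-3 cells, read out with a cell viability assay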
Description: SANGER: Inhibition of human UM-UC-3 cell growth in a cell viability assay.

no-10 = assay type: functional, cell-based, Homo sapiens; settings: Homo sapiens;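 further: growth inhibition of no-10 cells, read out with a cell viability assay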
Description: SANGER: Inhibition of human no-10 cell growth in a cell viability assay.

CHL-1 = assay type: functional, cell-based, Homo sapiens; settings: Homo sapiens, CHL-1;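 further: cell growth inhibition, read out with a cell viability assay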
Description: SANGER: Inhibition of human CHL-1 cell growth in a cell viability assay.

Measured: IC50

C[C@]1(O)C[C@@H](c2nc(-c3ccc4ccc(-c5ccccc5)nc4c3)c3c(N)nccn32)C1 [LINSITINIB]
0.671 µM: NCI-H358
0.242 µM: HT-29
0.0782 µM: TE-11
0.468 µM: BFTC-905
0.476 µM: A-375
1.31 µM: TE-8
0.271 µM: LS-1034
> 2.56 µM: COLO-829 | Calu-3 | Calu-6 | D283 Med | EGI-1 | EOL1 | G-402 | GOTO | HCC2218 | HH | HuP-T3 | KLE | KP-N-YS | LAMA-84 | LOX IMVI | MFH-ino | MHH-NB-11 | MKN-1 | MPP-89 | MZ2-MEL | NCI-H1693 | NCI-H1993 | NCI-H2405 | NCI-H292 | SH-4 | SK-MEL-2 | SK-MES-1 | SW1783 | SW 962 | T-24 | T98G | 697 | 786-0 | A704 | AGS | ASPC1 | BB65-RCC | BEN | CAL-12T | CAL-27 | UMUC3 | no-10 | CHL-1
1.71 µM: TE-1

C=CCc1cccc(/C=N/NC(=O)CN2CCN(Cc3ccccc3)CC2)c1O [PAC-1]
0.869 µM: A-375
0.739 µM: 786-0
0.91 µM: 697
1.24 µM: NCI-H358
> 2.56 µM: COLO-829 | Calu-3 | Calu-6 | D283 Med | EGI-1 | EOL1 | G-402 | GOTO | HCC2218 | HH | HT-29 | HuP-T3 | KLE | KP-N-YS | LAMA-84 | LOX IMVI | LS-1034 | MFH-ino | MHH-NB-11 | MKN-1 | MPP-89 | MZ2-MEL | NCI-H1693 | NCI-H1993 | NCI-H2405 | NCI-H292 | SH-4 | SK-MEL-2 | SK-MES-1 | SW1783 | SW 962 | T-24 | T98G | TE-1 | A704 | AGS | ASPC1 | BB65-RCC | BEN | BFTC-905 | CAL-12T | CAL-27 | TE-11 | TE-8 | UMUC3 | no-10 | CHL-1

Cc1ccc(Nc2nccc(N(C)c3ccc4c(C)n(C)nc4c3)n2)cc1S(N)(=O)=O [PAZOPANIB]
< 0.0312 µM: EOL1
6.93 µM: MZ2-MEL
1.6 µM: A704
0.532 µM: G-402
> 8 µM: COLO-829 | Calu-3 | Calu-6 | D283 Med | EGI-1 | GOTO | HCC2218 | HH | HT-29 | HuP-T3 | KLE | KP-N-YS | LAMA-84 | LOX IMVI | LS-1034 | MFH-ino | MHH-NB-11 | MKN-1 | MPP-89 | NCI-H1693 | NCI-H1993 | NCI-H2405 | NCI-H292 | NCI-H358 | SH-4 | SK-MEL-2 | SW1783 | SW 962 | T-24 | T98G | TE-1 | 697 | 786-0 | A-375 | AGS | ASPC1 | BB65-RCC | BEN | BFTC-905 | CAL-12T | CAL-27 | TE-11 | UMUC3 | no-10 | CHL-1
6.87 µM: SK-MES-1
6.16 µM: TE-8

Cn1cncc1[C@@](N)(c1ccc(Cl)cc1)c1ccc2c(c1)c(-c1cccc(Cl)c1)cc(=O)n2C [TIPIFARNIB]
4.43 µM: Calu-3
9.6 µM: NCI-H2405
1.28 µM: Calu-6 | 697
0.342 µM: 786-0
1.3 µM: SH-4
0.928 µM: TE-8
6.42 µM: LAMA-84
6.71 µM: EOL1
11.6 µM: EGI-1
9.28 µM: NCI-H292
2.15 µM: SW 962
1.91 µM: SK-MES-1
2.64 µM: BB65-RCC
13.9 µM: T-24
4.92 µM: NCI-H358
8.91 µM: KLE
3.1 µM: CAL-27
1.9 µM: MZ2-MEL
0.805 µM: CHL-1
1.69 µM: TE-11
0.547 µM: HT-29
5.4 µM: BEN
0.191 µM: HH
1.26 µM: SW1783
0.484 µM: SK-MEL-2
0.76 µM: CAL-12T
2.46 µM: LS-1034
> 16 µM: D283 Med | GOTO | HCC2218 | HuP-T3 | KP-N-YS | LOX IMVI | MHH-NB-11 | MPP-89 | NCI-H1693 | NCI-H1993 | A704 | ASPC1 | no-10
0.616 µM: A-375
12.6 µM: COLO-829 | UMUC3
1.88 µM: MKN-1 | BFTC-905
4.53 µM: AGS
2.61 µM: TE-1
11.8 µM: T98G
2.11 µM: G-402
0.815 µM: MFH-ino
